In patent publication US20260049101A1, “TOPICAL TREATMENT OF SKIN CANCER USING OLIGOPEPTIDES” (BACOBA AG, priority 2022, published 2026):
Numbered stars: 1 amine (or outer) side, 2 acyl side, 3 side chain; on linkers, the order of the positions; unused ones are H or OH. Square brackets hold non-standard residues; d marks the D form. Peptide text beside a SMILES is read from it. * marks the point of attachment. Abu(4,4,4-F3) = N[C@@H](CC(F)(F)F)C(=O)O; X4 = C[C@](N[*:1])(C(=O)[*:2])C(F)(F)F; NH(1-CH2NMe2-cBu) = CN(C)CC1(N*)CCC1; X8 = COc1ccc2cc(C(=O)*)c(=O)oc2c1; β3hAib = CC(C)(CC(=O)[*:2])N[*:1]; Benzoyl(4-F) = O=C(c1ccc(F)cc1)*; hCha = N[C@@H](CCC1CCCCC1)C(=O)O; β3hL = CC(C)C[C@H](N)CC(=O)O; Aib = CC(C)(N)C(=O)O; βAla = NCCC(=O)O

System: cutaneous squamous cell carcinoma cell line SCC12
Assay: In vitro anti-proliferative assay (resazurin) in SCC12
Type: cell-based
Details: SCC12, 72 hours
Text: Methodology. The cutaneous squamous cell carcinoma cell culture SCC12 was cultivated in keratinocyte-SFM media (KSFM, Cat #17005042, Gibco) supplemented with human recombinant epidermal growth factor 1-53 (EGF 1-53) and bovine pituitary extract (BFE).
Vehicle treated wells were set to 100% viability.

| Compound | IC50 [nM] |
| --- | --- |
| COc1ccc2cc(C(=O)N3CCC[C@H]3C(=O)N[C@@H](CCC3CCCCC3)C(=O)N[C@@H](CC(C)C)C(=O)NC(C)(C)C(=O)N[C@@H](CC(C)C)C(=O)N[C@@H](CC(C)C)C(=O)NC(C)(C)C(=O)NC(C)(C)C(=O)NCCC(=O)NC3(CN(C)C)CCC3)c(=O)oc2c1 [Compound 21287, (2S)-2-[(2S)-4-cyclohexyl-2-{[(2S)-1-(7-methoxy-2-oxo-2H-chromene-3-carbonyl)pyrrolidin-2-yl]formamido}butanamido]-N-(1-{[(1S)-1-{[(1S)-1-({1-[(1-{[2-({1-[(dimethylamino)methyl]cyclobutyl}carbamoyl)ethyl]carbamoyl}-1-methylethyl)carbamoyl]-1-methylethyl}carbamoyl)-3-methylbutyl]carbamoyl}-3-methylbutyl]carbamoyl}-1-methylethyl)-4-methylpentanamide] (X8-P[hCha]L[Aib]LL[Aib][Aib][βAla]-{NH(1-CH2NMe2-cBu)}) | 595 |
| CC(C)C[C@@H](CC(=O)NC(C)(C)C(=O)N[C@@H](CC(C)C)C(=O)N[C@@H](CC(C)C)C(=O)NC(C)(C)C(=O)NC(C)(C)C(=O)NCCC(=O)NC1(CN(C)C)CCC1)NC(=O)[C@H](CCC1CCCCC1)NC(=O)[C@@H]1CCCN1C(=O)c1ccc(F)cc1 [Compound 21314, (3S)-3-[(2S)-4-cyclohexyl-2-{[(2S)-1-(4-fluorobenzoyl)pyrrolidin-2-yl]formamido}butan-amido]-N-(1-{[(1S)-1-{[(1S)-1-({1-[(1-{[2-({1-[(dimethylamino)methyl]cyclobutyl}carba-moyl)ethyl]carbamoyl}-1-methylethyl)carbamoyl]-1-methylethyl}carbamoyl)-3-methylbutyl]carbamoyl}-3-methylbutyl]carbamoyl}-1-methylethyl)-5-methylhexanamide] ({Benzoyl(4-F)}-P[hCha][β3hL][Aib]LL[Aib][Aib][βAla]-{NH(1-CH2NMe2-cBu)}) | 324 |
| CC(C)C[C@@H](CC(=O)NC(C)(C)C(=O)NC(C)(C)C(=O)NCCC(=O)NC1(CN(C)C)CCC1)NC(=O)C[C@H](CC(C)C)NC(=O)C(C)(C)NC(=O)C[C@H](CC(C)C)NC(=O)[C@H](CCC1CCCCC1)NC(=O)[C@@H]1CCCN1C(=O)c1ccc(F)cc1 [Compound 21315, (3S)-3-[(2S)-4-cyclohexyl-2-{[(2S)-1-(4-fluorobenzoyl)pyrrolidin-2-yl]formamido}butanamido]-N-(1-{[(2S)-1-{[(2S)-1-({1-[(1-{[2-({1-[(dimethylamino)methyl]cyclobutyl}carbamoyl)ethyl]carbamoyl}-1-methylethyl)carbamoyl]-1-methylethyl}carbamoyl)-4-methylpentan-2-yl]carbamoyl}-4-methylpentan-2-yl]carbamoyl}-1-methylethyl)-5-methylhexanamide] ({Benzoyl(4-F)}-P[hCha][β3hL][Aib][β3hL][β3hL][Aib][Aib][βAla]-{NH(1-CH2NMe2-cBu)}) | 3100 |
| CC(C)C[C@H](NC(=O)[C@H](CCC1CCCCC1)NC(=O)[C@@H]1CCCN1C(=O)c1ccc(F)cc1)C(=O)NC(C)(C)C(=O)N[C@@H](CC(C)C)C(=O)N[C@@H](CC(C)C)C(=O)NC(C)(C)C(=O)N[C@@](C)(C(=O)NCCC(=O)NC1(CN(C)C)CCC1)C(F)(F)F [Compound 21359, (2S)-2-[(2S)-4-cyclohexyl-2-{[(2S)-1-(4-fluorobenzoyl)pyrrolidin-2-yl]formamido}butanamido]-N-(1-{[(1S)-1-{[(1S)-1-[(1-{[(1S)-1-{[2-({1-[(dimethylamino)methyl]cyclobutyl}carbamoyl)ethyl]carbamoyl}-2,2,2-trifluoro-1-methylethyl]carbamoyl}-1-methylethyl)carbamoyl]-3-methylbutyl]carbamoyl}-3-methylbutyl]carbamoyl}-1-methylethyl)-4-methylpentanamide] ({Benzoyl(4-F)}-P[hCha]L[Aib]LL[Aib][X4][βAla]-{NH(1-CH2NMe2-cBu)}) | 360 |
| CC(C)C[C@H](NC(=O)[C@H](CC(C)C)NC(=O)[C@](C)(NC(=O)[C@H](CC(C)C)NC(=O)[C@H](CCC1CCCCC1)NC(=O)[C@@H]1CCCN1C(=O)c1ccc(F)cc1)C(F)(F)F)C(=O)NC(C)(C)C(=O)NC(C)(C)C(=O)NCCC(=O)NC1(CN(C)C)CCC1 [Compound 21362, (2S)-2-[(2S)-4-cyclohexyl-2-{[(2S)-1-(4-fluorobenzoyl)pyrrolidin-2-yl]formamido}butanamido]-N-[(1S)-1-{[(1S)-1-{[(1S)-1-({1-[(1-{[2-({1-[(dimethylamino)methyl]cyclobutyl}carbamoyl)ethyl]carbamoyl}-1-methylethyl)carbamoyl]-1-methylethyl}carbamoyl)-3-methylbutyl]carbamoyl}-3-methylbutyl]carbamoyl}-2,2,2-trifluoro-1-methylethyl]-4-methylpentanamide] ({Benzoyl(4-F)}-P[hCha]L[X4]LL[Aib][Aib][βAla]-{NH(1-CH2NMe2-cBu)}) | 717 |
| CC(C)C[C@H](NC(=O)[C@H](CCC1CCCCC1)NC(=O)[C@@H]1CCCN1C(=O)c1ccc(F)cc1)C(=O)NC(C)(C)C(=O)N[C@@H](CC(C)C)C(=O)N[C@@H](CC(C)C)C(=O)NC(C)(C)C(=O)NC(C)(C)CC(=O)NCCC(=O)NC1(CN(C)C)CCC1 [Compound 21365, (2S)-2-[(2S)-4-cyclohexyl-2-{[(2S)-1-(4-fluorobenzoyl)pyrrolidin-2-yl]formamido}butan-amido]-N-(1-{[(1S)-1-{[(1S)-1-({1-[(1-{[2-({1-[(dimethylamino)methyl]cyclobutyl}carbamoyl)ethyl]carbamoyl}-2-methylpropan-2-yl)carbamoyl]-1-methylethyl}carbamoyl)-3-methylbutyl]carbamoyl}-3-methylbutyl]carbamoyl}-1-methylethyl)-4-methylpentanamide] ({Benzoyl(4-F)}-P[hCha]L[Aib]LL[Aib][β3hAib][βAla]-{NH(1-CH2NMe2-cBu)}) | 511 |
| CC(C)C[C@H](NC(=O)CC(C)(C)NC(=O)[C@H](CC(C)C)NC(=O)[C@H](CCC1CCCCC1)NC(=O)[C@@H]1CCCN1C(=O)c1ccc(F)cc1)C(=O)N[C@@H](CC(C)C)C(=O)NC(C)(C)CC(=O)NC(C)(C)CC(=O)NCCC(=O)NC1(CN(C)C)CCC1 [Compound 21368, (2S)-2-[(2S)-4-cyclohexyl-2-{[(2S)-1-(4-fluorobenzoyl)pyrrolidin-2-yl]formamido}butan-amido]-N-(1-{[(1S)-1-{[(1S)-1-({1-[(1-{[2-({1-[(dimethylamino)methyl]cyclobutyl}carba-moyl)ethyl]carbamoyl}-2-methylpropan-2-yl)carbamoyl]-2-methylpropan-2-yl}carbamoyl)-3-methylbutyl]carbamoyl}-3-methylbutyl]carbamoyl}-2-methylpropan-2-yl)-4-methylpentanamide] | > 10000 |
| CC(C)C[C@H](NC(=O)[C@H](CCC1CCCCC1)NC(=O)[C@@H]1CCCN1C(=O)c1ccc(F)cc1)C(=O)NC(C)(C)C(=O)N[C@@H](CC(C)C)C(=O)N[C@@H](CC(F)(F)F)C(=O)NC(C)(C)C(=O)NC(C)(C)C(=O)NCCC(=O)NC1(CN(C)C)CCC1 [Compound 21369, (2S)-2-[(2S)-4-cyclohexyl-2-{[(2S)-1-(4-fluorobenzoyl)-pyrrolidin-2-yl]formamido}butan-amido]-N-(1-{[(1S)-1-{[(1S)-1-({1-[(1-{[2-({1-[(dimethylamino)methyl]cyclobutyl}carba-moyl)ethyl]carbamoyl}-1-methylethyl)carbamoyl]-1-methylethyl}carbamoyl)-3,3,3-trifluoropropyl]carbamoyl}-3-methylbutyl]carbamoyl}-1-methylethyl)-4-methylpentanamide] ({Benzoyl(4-F)}-P[hCha]L[Aib]L[Abu(4,4,4-F3)][Aib][Aib][βAla]-{NH(1-CH2NMe2-cBu)}) | 167 |
| CN(C)CC1(NC(=O)CCNC(=O)C(C)(C)NC(=O)C(C)(C)NC(=O)[C@H](CC(F)(F)F)NC(=O)[C@H](CC(F)(F)F)NC(=O)C(C)(C)NC(=O)[C@H](CC(F)(F)F)NC(=O)[C@H](CCC2CCCCC2)NC(=O)[C@@H]2CCCN2C(=O)c2ccc(F)cc2)CCC1 [Compound 21372, (2S)-4-cyclohexyl-N-[(1S)-1-[(1-{[(1S)-1-{[(1S)-1-({1-[(1-{[2-({1-[(dimethylamino)methyl]cyclobutyl}carbamoyl)ethyl]carbamoyl}-1-methylethyl)carbamoyl]-1-methylethyl}carba-moyl)-3,3,3-trifluoropropyl]carbamoyl}-3,3,3-trifluoropropyl]carbamoyl}-1-methylethyl)carbamoyl]-3,3,3-trifluoropropyl]-2-{[(2S)-1-(4-fluorobenzoyl)pyrrolidin-2-yl]formamido}butanamide] ({Benzoyl(4-F)}-P[hCha][Abu(4,4,4-F3)][Aib][Abu(4,4,4-F3)][Abu(4,4,4-F3)][Aib][Aib][βAla]-{NH(1-CH2NMe2-cBu)}) | 442 |
